Assay results: patent publication US9040545B2, “Heterocyclyl pyrazolopyrimidine analogues as selective JAK inhibitors” (Cellzome Limited, priority 2010, dated 2015)

Biological target: T1, Aurora A (Homo sapiens, UniProt O14965)
T1 construct: cell lysates from Jurkat cells (ATCC TIB-152) used; endogenous in cells; host or cells: Jurkat cells (ATCC TIB-152), treated with pervanadate
T1 sequence (O14965 1-403): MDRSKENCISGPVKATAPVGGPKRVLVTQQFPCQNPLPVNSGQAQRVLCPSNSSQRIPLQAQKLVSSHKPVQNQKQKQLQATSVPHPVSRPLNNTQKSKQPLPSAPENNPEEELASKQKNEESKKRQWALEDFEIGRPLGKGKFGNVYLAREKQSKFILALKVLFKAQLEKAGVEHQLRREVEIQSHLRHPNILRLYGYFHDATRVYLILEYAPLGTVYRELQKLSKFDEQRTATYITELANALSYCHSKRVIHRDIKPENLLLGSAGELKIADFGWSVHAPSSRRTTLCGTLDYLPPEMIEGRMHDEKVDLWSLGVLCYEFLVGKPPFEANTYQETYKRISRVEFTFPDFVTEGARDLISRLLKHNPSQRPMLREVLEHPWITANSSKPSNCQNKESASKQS
Experiment: Kinobeads assay, Aurora A
Type: binding
Conditions: for IC50: lysate of pervanadate-treated Jurkat cells, read-out: Inhibition values (IC50) Aur A
Procedure: The compounds of the present invention as described in the previous examples were tested in a Kinobeads™ assay as described for ZAP-70 (WO-A 2007/137867). Briefly, test compounds (at various concentrations) and the affinity matrix with the immobilized aminopyrido-pyrimidine ligand 24 were added to cell lysate aliquots and allowed to bind to the proteins in the lysate sample. After the incubation time the beads with captured proteins were separated from the lysate. Bound proteins were then eluted and the presence of JAK2 and JAK3 was detected and quantified using specific antibodies in a dot blot procedure and the Odyssey infrared detection system. Dose response curves for individual kinases were generated and IC50 values calculated. Kinobeads™ assays for ZAP-70 (WO-A 2007/137867) and for kinase selectivity profiling (WO-A 2006/134056) have been previously described.
The affinity matrix was washed two times with 15 mL of 1×DP buffer containing 0.2% NP40 (IGEPAL® CA-630, Sigma, #I3021) and then resuspended in 1×DP buffer containing 0.2% NP40 (3% beads slurry).
5×DP buffer 250 mM Tris-HCl pH 7.4, 25% Glycerol, 7.5 mM MgCl2, 750 mM NaCl, 5 mM Na3VO4; filter the 5×DP buffer through a 0.22 μm filter and store in aliquots at −80° C. The 5×DP buffer is diluted with H2O to 1×DP buffer containing 1 mM DTT and 25 mM NaF.
Stock solutions of test compounds were prepared in DMSO. In a 96 well plate 30 μL solution of diluted test compounds at 5 mM in DMSO were prepared. Starting with this solution a 1:3 dilution series (9 steps) was prepared. For control experiments (no test compound) a buffer containing 2% DMSO was used.
Cell lysate (approximately 50 mg protein per plate) was thawed in a water bath at room temperature and then stored on ice. To the thawed cell lysate 1×DP 0.8% NP40 buffer containing protease inhibitors (1 tablet for 25 mL buffer; EDTA-free protease inhibitor cocktail; Roche Diagnostics 1873580) was added in order to reach a final protein concentration of 10 mg/mL total protein. The diluted cell lysate was stored on ice. Mixed Molt4/Ramos lysate was prepared by combining one volume of Molt4 lysate and two volumes of Ramos lysate (ratio 1:2).
To a 96 well filter plate (Multiscreen HTS, BV Filter Plates, Millipore #MSBVN1250) were added per well: 100 μL affinity matrix (3% beads slurry), 3 μL of compound solution, and 50 μL of diluted lysate. Plates were sealed and incubated for 3 hours in a cold room on a plate shaker (Heidolph tiramax 1000) at 750 rpm. Afterwards the plate was washed 3 times with 230 μL washing buffer (1×DP 0.4% NP40). The filter plate was placed on top of a collection 1 plate (Greiner bio-one, PP-microplate 96 well V-shape, 65120) and the beads were then eluted with 20 μL of sample buffer (100 mM Tris, pH 7.4, 4% SDS, 0.00025% bromophenol blue, 20% glycerol, 50 mM DTT). The eluate was frozen quickly at −80° C. and stored at −20° C.
The kinases in the eluates were detected and quantified by spotting on nitrocellulose membranes and using a first antibody directed against the kinase of interest and a fluorescently labelled secondary antibody (anti-rabbit IRDye™ antibody 800 (Licor, #926-32211). The Odyssey Infrared Imaging system from LI-COR Biosciences (Lincoln, Nebr., USA) was operated according to instructions provided by the manufacturer (Schutz-Geschwendener et al, 2004. Quantitative, two-color Western blot detection with infrared fluorescence. Published May 2004 by LI-COR Biosciences, www.licor.com).
After spotting of the eluates the nitrocellulose membrane (BioTrace NT; PALL, #BTNT30R) was first blocked by incubation with Odyssey blocking buffer (LICOR, 927-40000) for 1 hour at room temperature. Blocked membranes were then incubated for 16 hours at the temperature shown in Table 5 with the first antibody diluted in Odyssey blocking buffer (LICOR #927-40000). Afterwards the membrane was washed twice for 10 minutes with PBS buffer containing 0.2% Tween 20 at room temperature. […]

## Cn1cc(Nc2ncc3cnn(Cc4cc(F)cc(N5CC6(COC6)C5)c4)c3n2)cn1 [Example 90, 1-(3-fluoro-5-(2-oxa-6-azaspiro[3.3]heptan-6-yl)benzyl)-N-(1-methyl-1H-pyrazol-4-yl)-1H-pyrazolo[3,4-d]pyrimidin-6-amine]
  JAK3/AurA Fold Selectivity: 10-50 Fold
  IC50: ≥ 10000 nM

## Cn1cc(Nc2ncc3cnn(Cc4cccc(N5CC6(COC6)C5)c4F)c3n2)cn1 [Example 91, 1-(2-fluoro-3-(2-oxa-6-azaspiro[3.3]heptan-6-yl)benzyl)-N-(1-methyl-1H-pyrazol-4-yl)-1H-pyrazolo[3,4-d]pyrimidin-6-amine]
  IC50: ≥ 10000 nM

## Cn1cc(Nc2ncc3cnn(Cc4cc(F)cc(N5CCNCC5)c4)c3n2)cn1 [Example 92, 1-(3-fluoro-5-(piperazin-1-yl)benzyl)-N-(1-methyl-1H-pyrazol-4-yl)-1H-pyrazolo[3,4-d]pyrimidin-6-amine]
  JAK3/AurA Fold Selectivity: 10-50 Fold
  IC50: 100 to 1000 nM

## OCCn1cc(Nc2ncc3cnn(Cc4cc(F)cc(N5CCNCC5)c4)c3n2)cn1 [Example 93, 2-(4-((1-(3-fluoro-5-(piperazin-1-yl)benzyl)-1H-pyrazolo[3,4-d]pyrimidin-6-yl)amino)-1H-pyrazol-1-yl)ethanol]
  JAK3/AurA Fold Selectivity: 10-50 Fold
  IC50: 100 to 1000 nM

## Fc1cc(N2CCOCC2)c(F)c(Cn2ncc3cnc(Nc4cnn(CC5CCNC5)c4)nc32)c1F (stereo not shown) [Example 94, N-(1-(pyrrolidin-3-ylmethyl)-1H-pyrazol-4-yl)-1-(2,3,6-trifluoro-5-morpholinobenzyl)-1H-pyrazolo[3,4-d]pyrimidin-6-amine]
  JAK3/AurA Fold Selectivity: >50 Fold
  IC50: 1000 to 10000 nM

## Cn1cc(Nc2ncc3cnn(Cc4cc(F)cc(N5CCNCC5)c4F)c3n2)cn1 [Example 95, 1-(2,5-difluoro-3-(piperazin-1-yl)benzyl)-N-(1-methyl-1H-pyrazol-4-yl)-1H-pyrazolo[3,4-d]pyrimidin-6-amine]
  JAK3/AurA Fold Selectivity: 10-50 Fold
  IC50: 100 to 1000 nM

## OCCn1cc(Nc2ncc3cnn(Cc4cc(F)cc(N5CCNCC5)c4F)c3n2)cn1 [Example 96, 2-(4-((1-(2,5-difluoro-3-(piperazin-1-yl)benzyl)-1H-pyrazolo[3,4-d]pyrimidin-6-yl)amino)-1H-pyrazol-1-yl)ethanol]
  JAK3/AurA Fold Selectivity: >50 Fold
  IC50: ≥ 10000 nM

## CN(C)CC(F)Cn1cc(Nc2ncc3cnn(Cc4cc(F)cc(N5CCOCC5=O)c4)c3n2)cn1 (stereo not shown) [Example 97, 4-(3-((6-((1-(3-(dimethylamino)-2-fluoropropyl)-1H-pyrazol-4-yl)amino)-1H-pyrazolo[3,4-d]pyrimidin-1-yl)methyl)-5-fluorophenyl)morpholin-3-one]
  JAK3/AurA Fold Selectivity: 10-50 Fold
  IC50: 100 to 1000 nM

## Cn1cc(Nc2ncc3cnn(Cc4cc(C(=O)N5CCOCC5)cc(F)c4F)c3n2)cn1 [Example 98, (3,4-difluoro-5-((6-((1-methyl-1H-pyrazol-4-yl)amino)-1H-pyrazolo[3,4-d]pyrimidin-1-yl)methyl)phenyl)(morpholino)methanone]
  JAK3/AurA Fold Selectivity: 3-10 Fold
  IC50: < 100 nM

## CNCCCn1cc(Nc2ncc3cnn(Cc4cc(F)cc(N5CCOCC5=O)c4)c3n2)cn1 [Example 99, 4-(3-fluoro-5-((6-((1-(3-(methylamino)propyl)-1H-pyrazol-4-yl)amino)-1H-pyrazolo[3,4-d]pyrimidin-1-yl)methyl)phenyl)morpholin-3-one]
  JAK3/AurA Fold Selectivity: 3-10 Fold
  IC50: < 100 nM

## Cn1cc(Nc2ncc3cnn(Cc4cccc(N5CCN(S(C)(=O)=O)CC5)c4)c3n2)cn1 [Example 100, N-(1-methyl-1H-pyrazol-4-yl)-1-(3-(4-(methylsulfonyl)piperazin-1-yl)benzyl)-1H-pyrazolo[3,4-d]pyrimidin-6-amine]
  JAK3/AurA Fold Selectivity: 3-10 Fold
  IC50: 100 to 1000 nM

## O=C1COCCN1c1cc(F)cc(Cn2ncc3cnc(Nc4cnn(CC5CCNC5)c4)nc32)c1 (stereo not shown) [Example 101, 4-(3-fluoro-5-((6-((1-(pyrrolidin-3-ylmethyl)-1H-pyrazol-4-yl)amino)-1H-pyrazolo[3,4-d]pyrimidin-1-yl)methyl)phenyl)morpholin-3-one]
  JAK3/AurA Fold Selectivity: 10-50 Fold
  IC50: < 100 nM

## O=C1COCCN1c1cc(F)cc(Cn2ncc3cnc(Nc4cnn(C5CCNCC5)c4)nc32)c1 [Example 102, 4-(3-fluoro-5-((6-((1-(piperidin-4-yl)-1H-pyrazol-4-yl)amino)-1H-pyrazolo[3,4-d]pyrimidin-1-yl)methyl)phenyl)morpholin-3-one]
  JAK3/AurA Fold Selectivity: 10-50 Fold
  IC50: < 100 nM

## Cn1cc(Nc2ncc3cnn(Cc4cccc(N5CCOCC5)c4Cl)c3n2)cn1 [Example 103, 1-(2-chloro-3-morpholinobenzyl)-N-(1-methyl-1H-pyrazol-4-yl)-1H-pyrazolo[3,4-d]pyrimidin-6-amine]
  JAK3/AurA Fold Selectivity: 3-10 Fold
  IC50: < 100 nM

## Cn1cc(Nc2ncc3cnn(Cc4cccc(N5CCC6(COC6)C5)c4)c3n2)cn1 [Example 104, 1-(3-(2-oxa-6-azaspiro[3.4]octan-6-yl)benzyl)-N-(1-methyl-1H-pyrazol-4-yl)-1H-pyrazolo[3,4-d]pyrimidin-6-amine]
  JAK3/AurA Fold Selectivity: 10-50 Fold
  IC50: 100 to 1000 nM

## O=C1CC(Cn2cc(Nc3ncc4cnn(Cc5cc(F)cc(N6CCOCC6=O)c5)c4n3)cn2)CN1 (stereo not shown) [Example 105, 4-(3-fluoro-5-((6-((1-((5-oxopyrrolidin-3-yl)methyl)-1H-pyrazol-4-yl)amino)-1H-pyrazolo[3,4-d]pyrimidin-1-yl)methyl)phenyl)morpholin-3-one]
  JAK3/AurA Fold Selectivity: 10-50 Fold
  IC50: 100 to 1000 nM

## O=C1COCCN1c1cc(F)cc(Cn2ncc3cnc(Nc4cnn(CCS(=O)(=O)NC5CC5)c4)nc32)c1 [Example 106, N-cyclopropyl-2-(4-((1-(3-fluoro-5-(3-oxomorpholino)benzyl)-1H-pyrazolo[3,4-d]pyrimidin-6-yl)amino)-1H-pyrazol-1-yl)ethanesulfonamide]
  JAK3/AurA Fold Selectivity: 10-50 Fold
  IC50: 100 to 1000 nM

## N#CCCn1cc(Nc2ncc3cnn(Cc4cc(F)cc(N5CCOCC5=O)c4)c3n2)cn1 [Example 107, 3-(4-((1-(3-fluoro-5-(3-oxomorpholino)benzyl)-1H-pyrazolo[3,4-d]pyrimidin-6-yl)amino)-1H-pyrazol-1-yl)propanenitrile]
  JAK3/AurA Fold Selectivity: 3-10 Fold
  IC50: < 100 nM

## Cn1cc(Nc2ncc3cnn(Cc4cccc(N5CCC(=O)CC5)c4)c3n2)cn1 [Example 108, 1-(3-((6-((1-methyl-1H-pyrazol-4-yl)amino)-1H-pyrazolo[3,4-d]pyrimidin-1-yl)methyl)phenyl)piperidin-4-one]
  JAK3/AurA Fold Selectivity: 3-10 Fold
  IC50: 100 to 1000 nM
